Read-outs that look alike come from different tables or passages of the source.
Tests used:
[1] = tested on: Key Broadleaf Weed and Crop Species; assay: Post-emergent Test II herbicidal activity (Table 5); format: in vivo; conditions: post-emergence, 336 h, post-emergent, 14 days after application; for pest or weed control at 70 g/ha: 70 g ai/ha; for pest or weed control at 140 g/ha: 140 g ai/ha
Procedure, shortened: (§1)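 Greenhouse post-emergent assay: seedlings (first/second true leaf) in Metro-Mix 360 were sprayed at 187 L/ha at a top rate plus twofold dilutions down to 1/16×; solvent-blank controls were included. Percent visual injury was read at 14 d.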

[2] = tested on: Key Grass and Sedge Weeds as well as Grass Crops; assay: Post-emergent Test II herbicidal activity (Table 6); format: in vivo; conditions: post-emergence, 336 h; for pest or weed control at 70 g/ha: application rate 70 g ai/ha; for pest or weed control at 140 g/ha: application rate 140 g ai/ha
Procedure, shortened: as §1

[3] = ABUTH: velvetleaf (Abutilon theophrasti), read-out: Visual Growth Reduction (%) 14 Days After Application ABUTH
[4] = AMARE: redroot pigweed (Amaranthus retroflexus), read-out: Visual Growth Reduction (%) 14 Days After Application AMARE
[5] = BRSNN: oilseed-rape, canola (Brassica napus), read-out: Visual Growth Reduction (%) 14 Days After Application BRSNN
[6] = CHEAL: lambsquarters (Chenopodium album), read-out: Visual Growth Reduction (%) 14 Days After Application CHEAL
[7] = EPHHL: wild poinsettia (Euphorbia heterophylla), read-out: Visual Growth Reduction (%) 14 Days After Application EPHHL
[8] = HELAN: sunflower (Helianthus annuus), read-out: Visual Growth Reduction (%) 14 Days After Application HELAN
[9] = VIOTR: wild pansy (Viola tricolor), read-out: Visual Growth Reduction (%) 14 Days After Application VIOTR
[10] = Triticum aestivum, TRZSS (wheat), read-out: Visual Growth Reduction (%) 14 Days After Application, TRZSS
[11] = CYPES: yellow nutsedge (Cyperus esculentus), read-out: Visual Growth Reduction (%) 14 Days After Application, CYPES
[12] = DIGSA: crabgrass (Digitaria sanguinalis), read-out: Visual Growth Reduction (%) 14 Days After Application, DIGSA
[13] = ECHCG: barnyardgrass (Echinochloa crus-galli), read-out: Visual Growth Reduction (%) 14 Days After Application, ECHCG
[14] = ORYSA: rice (Oryza sativa), read-out: Visual Growth Reduction (%) 14 Days After Application, ORYSA
[15] = SETFA: giant foxtail (Setaria faberi), read-out: Visual Growth Reduction (%) 14 Days After Application, SETFA
[16] = SORVU: grain sorghum (Sorghum vulgare), read-out: Visual Growth Reduction (%) 14 Days After Application, SORVU
[17] = ZEAMX: maize, corn (Zea mays), read-out: Visual Growth Reduction (%) 14 Days After Application, ZEAMX

Nc1cc(-c2ccc(I)c(F)c2)nc(C(=O)O)c1Cl [Compound 77, 4-amino-3-chloro-6-(3-fluoro-4-iodophenyl)picolinic acid]
pest or weed control at 70 g/ha [1, 3]: 85 to 94% | pest or weed control at 140 g/ha [1, 3]: 95 to 100% | pest or weed control at 70 g/ha [1, 4]: 95 to 100% | pest or weed control at 140 g/ha [1, 4]: 95 to 100% | pest or weed control at 70 g/ha [1, 5]: 75 to 84% | pest or weed control at 140 g/ha [1, 5]: 85 to 94% | pest or weed control at 70 g/ha [1, 6]: 95 to 100% | pest or weed control at 140 g/ha [1, 6]: 95 to 100% | pest or weed control at 70 g/ha [1, 7]: 95 to 100% | pest or weed control at 140 g/ha [1, 7]: 95 to 100% | pest or weed control at 70 g/ha [1, 8]: 85 to 94% | pest or weed control at 140 g/ha [1, 8]: 85 to 94% | pest or weed control at 70 g/ha [1, 9]: 0 to 29% | pest or weed control at 140 g/ha [1, 9]: 0 to 29% | pest or weed control at 70 g/ha [2, 10]: 45 to 59% | pest or weed control at 140 g/ha [2, 10]: 45 to 59% | pest or weed control at 70 g/ha [2, 11]: 0 to 29% | pest or weed control at 140 g/ha [2, 11]: 45 to 59% | pest or weed control at 70 g/ha [2, 12]: 75 to 84% | pest or weed control at 140 g/ha [2, 12]: 85 to 94% | pest or weed control at 70 g/ha [2, 13]: 60 to 74% | pest or weed control at 140 g/ha [2, 13]: 60 to 74% | pest or weed control at 70 g/ha [2, 14]: 0 to 29% | pest or weed control at 140 g/ha [2, 14]: 0 to 29% | pest or weed control at 70 g/ha [2, 15]: 0 to 29% | pest or weed control at 140 g/ha [2, 15]: 0 to 29% | pest or weed control at 70 g/ha [2, 16]: 45 to 59% | pest or weed control at 140 g/ha [2, 16]: 45 to 59% | pest or weed control at 70 g/ha [2, 17]: 0 to 29% | pest or weed control at 140 g/ha [2, 17]: 0 to 29%
